In US5502035A, “N-terminus modified analogs of LHRH” (Tap Holdings Inc., priority 1994, dated 1996):
Non-standard residues stand in square brackets, D forms with d. Residues, ends and D or L forms follow the SMILES beside them. Groups on a side chain read outwards from the residue. *: point of attachment. dAla(benzothien-2-yl) = N[C@H](Cc1cc2ccccc2s1)C(=O)O; Shikimoyl = O=C(C1=C[C@@H](O)[C@@H](O)[C@H](O)C1)*; dPhe(4-Cl) = N[C@H](Cc1ccc(Cl)cc1)C(=O)O; d1Nal = N[C@H](Cc1cccc2ccccc12)C(=O)O; d2Nal = N[C@H](Cc1ccc2ccccc2c1)C(=O)O; Lys(iPr) = CC(C)NCCCC[C@H](N)C(=O)O; NMeY = CN[C@@H](Cc1ccc(O)cc1)C(=O)O; hArg = N=C(N)NCCCC[C@H](N)C(=O)O; d3Pal = N[C@H](Cc1cccnc1)C(=O)O; Isonicotinoyl = O=C(c1ccncc1)*; Nicotinoyl = O=C(c1cccnc1)*; 2Furoyl = O=C(c1ccco1)*; azaGly = NNC(=O)O; βAla = NCCC(=O)O

Molecular target: T1, LHRH (Rattus norvegicus, UniProt P30969)
T1 construct: endogenous in cells; host or cells: rat pituitary cells (own knowledge of the cited Haviv 1989 method)
T1 sequence (P30969 1-327): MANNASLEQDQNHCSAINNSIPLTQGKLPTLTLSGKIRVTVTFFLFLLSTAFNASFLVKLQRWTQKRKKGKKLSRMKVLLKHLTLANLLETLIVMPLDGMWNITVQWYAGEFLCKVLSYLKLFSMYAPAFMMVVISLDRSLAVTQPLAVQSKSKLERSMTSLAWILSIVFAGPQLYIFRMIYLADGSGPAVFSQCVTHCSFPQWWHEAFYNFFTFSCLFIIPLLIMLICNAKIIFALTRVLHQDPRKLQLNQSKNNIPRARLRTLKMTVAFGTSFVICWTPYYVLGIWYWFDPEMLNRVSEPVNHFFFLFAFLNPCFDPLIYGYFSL
Assay: in vitro test for LHRH antagonist potency (pA2)
Format: cell-based
Details: negative logarithm of the antagonist concentration required to shift the response curve produced by the agonist leuprolide to two-fold higher concentration
In short: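 Rat LHRH receptor in vitro functional test; pA2 = negative log of the antagonist concentration shifting the leuprolide agonist response curve to two-fold higher concentration.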

Question: For `CC(C)C[C@H](NC(=O)[C@@H](CCCCNC(=O)C1=C[C@@H](O)[C@@H](O)[C@H](O)C1)NC(=O)[C@H](Cc1ccc(O)cc1)N(C)C(=O)[C@H](CO)NC(=O)[C@@H](Cc1cccnc1)NC(=O)[C@@H](Cc1ccc(Cl)cc1)NC(=O)[C@@H](Cc1ccc2ccccc2c1)NC(=O)CCNC(=O)C1=C[C@@H](O)[C@@H](O)[C@H](O)C1)C(=O)N[C@@H](CCCNC(=N)N)C(=O)N1CCC[C@H]1C(=O)N[C@H](C)C(N)=O` [Example 27e, N-Shikimyl-3-Aminopropionyl-D2Nal-D4ClPhe-D3Pal-Ser-NMeTyr-DLys(Shik)-Leu- Arg-Pro-DAlaNH2] ({Shikimoyl-βAla}-[d2Nal][dPhe(4-Cl)][d3Pal]S[NMeY][dK](Shikimoyl)LRP[dA]-NH2), which Kb is on record?
Answer: The Kb was 34.7 pM.

Question: `CC(C)C[C@H](NC(=O)[C@@H](CCCCNC(=O)C1=C[C@@H](O)[C@@H](O)[C@H](O)C1)NC(=O)[C@H](Cc1ccc(O)cc1)N(C)C(=O)[C@H](CO)NC(=O)[C@@H](Cc1cccnc1)NC(=O)[C@@H](Cc1ccc(Cl)cc1)NC(=O)[C@@H](Cc1ccc2ccccc2c1)NC(=O)CCNC(=O)c1cccnc1)C(=O)N[C@@H](CCCCNC(=N)N)C(=O)N1CCC[C@H]1C(=O)N[C@H](C)C(N)=O` [Example 28, N-Nicotinyl-3Aminopropionyl-D2Nal-D4ClPhe-D3Pal-Ser-NMeTyr-DLys(Shik)-Leu-Harg-Pro-DAlaNH2] ({Nicotinoyl-βAla}-[d2Nal][dPhe(4-Cl)][d3Pal]S[NMeY][dK](Shikimoyl)L[hArg]P[dA]-NH2) was tested. Which Kb did it give?
Answer: Its Kb is 9.77 pM.

Question: For `CC(C)C[C@H](NC(=O)[C@@H](CCCCNC(=O)CNC(=O)c1cccnc1)NC(=O)[C@H](Cc1ccc(O)cc1)N(C)C(=O)[C@H](CO)NC(=O)[C@@H](Cc1cccnc1)NC(=O)[C@@H](Cc1ccc(Cl)cc1)NC(=O)[C@@H](Cc1ccc2ccccc2c1)NC(=O)C1=C[C@@H](O)[C@@H](O)[C@H](O)C1)C(=O)N[C@@H](CCCCNC(C)C)C(=O)N1CCC[C@H]1C(=O)N[C@H](C)C(N)=O` [Example 29, N-Shikimyl-D2Nal-D4ClPhe-D3Pal-Ser-NMeTyr-DLys(GlyNic)-Leu-Lys(Isp)-Pro-DAlaNH2] (Shikimoyl-[d2Nal][dPhe(4-Cl)][d3Pal]S[NMeY][dK]([Gly-Nicotinoyl])L[Lys(iPr)]P[dA]-NH2), which Kb is on record?
Answer: Its Kb is 25.7 pM.

Question: `CC(C)C[C@H](NC(=O)[C@@H](CCCCNC(=O)NNC(=O)c1cccnc1)NC(=O)[C@H](Cc1ccc(O)cc1)N(C)C(=O)[C@H](CO)NC(=O)[C@@H](Cc1cccnc1)NC(=O)[C@@H](Cc1ccc(Cl)cc1)NC(=O)[C@@H](Cc1ccc2ccccc2c1)NC(=O)C1=C[C@@H](O)[C@@H](O)[C@H](O)C1)C(=O)N[C@@H](CCCCNC(C)C)C(=O)N1CCC[C@H]1C(=O)N[C@H](C)C(N)=O` [Example 30b, N-Shik-D2Nal-D4ClPhe-D3Pal-Ser-NMeTyr-DLys(Azagly-Nic)-Leu-Lys(Isp)-Pro-DAlaNH2] (Shikimoyl-[d2Nal][dPhe(4-Cl)][d3Pal]S[NMeY][dK]([azaGly-Nicotinoyl])L[Lys(iPr)]P[dA]-NH2) was tested. Which Kb did it give?
Answer: Its Kb is 29.5 pM.

Question: Which Kb does the source give for `CC(C)C[C@H](NC(=O)[C@@H](CCCCNC(=O)NNC(=O)c1ccco1)NC(=O)[C@H](Cc1ccc(O)cc1)N(C)C(=O)[C@H](CO)NC(=O)[C@@H](Cc1cccnc1)NC(=O)[C@@H](Cc1ccc(Cl)cc1)NC(=O)[C@@H](Cc1ccc2ccccc2c1)NC(=O)C1=C[C@@H](O)[C@@H](O)[C@H](O)C1)C(=O)N[C@@H](CCCCNC(C)C)C(=O)N1CCC[C@H]1C(=O)N[C@H](C)C(N)=O` [Example 30c, N-Shik-D2Nal-D4ClPhe-D3Pal-Ser-NMeTyr-DLys(Azagly-2Fur)-Leu-Lys(Isp)-Pro-DAlaNH2] (Shikimoyl-[d2Nal][dPhe(4-Cl)][d3Pal]S[NMeY][dK]([azaGly-2Furoyl])L[Lys(iPr)]P[dA]-NH2) here?
Answer: Its Kb is 38 pM.

Question: `CC(C)C[C@H](NC(=O)[C@@H](CCCCNC(=O)NNC(=O)c1cccnc1)NC(=O)[C@H](Cc1ccc(O)cc1)N(C)C(=O)[C@H](CO)NC(=O)[C@@H](Cc1cccnc1)NC(=O)[C@@H](Cc1ccc(Cl)cc1)NC(=O)[C@@H](Cc1ccc2ccccc2c1)NC(=O)NNC(=O)c1cccnc1)C(=O)N[C@@H](CCCCNC(C)C)C(=O)N1CCC[C@H]1C(=O)N[C@H](C)C(N)=O` [Example 31, N-Nicotinyl-Azagly-D2Nal-D4ClPhe-D3Pal-Ser-NMeTyr-DLys(Azagly-Nic)-Leu-Lys(Isp)-Pro-DAlaNH2] (Nicotinoyl-[azaGly][d2Nal][dPhe(4-Cl)][d3Pal]S[NMeY][dK]([azaGly-Nicotinoyl])L[Lys(iPr)]P[dA]-NH2) was tested. Which Kb did it give?
Answer: The Kb was 19.5 pM.

Question: With `CC(C)C[C@H](NC(=O)[C@@H](CCCCNC(=O)c1cccnc1)NC(=O)[C@H](Cc1ccc(O)cc1)N(C)C(=O)[C@H](CO)NC(=O)[C@@H](Cc1cc2ccccc2s1)NC(=O)[C@@H](Cc1ccc(Cl)cc1)NC(=O)NNC(=O)c1cccnc1)C(=O)N[C@@H](CCCCNC(C)C)C(=O)N1CCC[C@H]1C(=O)N[C@H](C)C(N)=O` [Example 32, N-Nicotinyl-Azagly-D4ClPhe-DBal-Ser-NMeTyr-DLys(Nic)-Leu-Lys(Isp)-Pro-DAlaNH2] (Nicotinoyl-[azaGly][dPhe(4-Cl)][dAla(benzothien-2-yl)]S[NMeY][dK](Nicotinoyl)L[Lys(iPr)]P[dA]-NH2) as the molecule, how does the Kb read?
Answer: Its Kb is 14.1 pM.

Question: `CC(C)C[C@H](NC(=O)[C@@H](CCCCNC(=O)c1cccnc1)NC(=O)[C@H](Cc1ccc(O)cc1)N(C)C(=O)[C@H](CO)NC(=O)[C@@H](Cc1cc2ccccc2s1)NC(=O)[C@@H](Cc1ccc(Cl)cc1)NC(=O)NNC(=O)c1ccco1)C(=O)N[C@@H](CCCCNC(C)C)C(=O)N1CCC[C@H]1C(=O)N[C@H](C)C(N)=O` [Example 33a, N-(2-Furoyl)-Azagly-D4ClPhe-DBal-Ser-NMeTyr-DLys(Nic)-Leu-Lys(Isp)-Pro-DAlaNH2] (2Furoyl-[azaGly][dPhe(4-Cl)][dAla(benzothien-2-yl)]S[NMeY][dK](Nicotinoyl)L[Lys(iPr)]P[dA]-NH2) was tested. Which Kb did it give?
Answer: The Kb was 6.31 pM.

Question: For `CC(C)C[C@H](NC(=O)[C@@H](CCCCNC(=O)c1cccnc1)NC(=O)[C@H](Cc1ccc(O)cc1)N(C)C(=O)[C@H](CO)NC(=O)[C@@H](Cc1cc2ccccc2s1)NC(=O)[C@@H](Cc1ccc(Cl)cc1)NC(=O)NNC(=O)c1ccncc1)C(=O)N[C@@H](CCCCNC(C)C)C(=O)N1CCC[C@H]1C(=O)N[C@H](C)C(N)=O` [Example 33b, N-Isonicotinyl-Azagly-D4ClPhe-DBal-Ser-NMeTyr-DLys(Nic)-Leu-Lys(Isp)-Pro-DAlaNH2] (Isonicotinoyl-[azaGly][dPhe(4-Cl)][dAla(benzothien-2-yl)]S[NMeY][dK](Nicotinoyl)L[Lys(iPr)]P[dA]-NH2), which Kb is on record?
Answer: The Kb was 20 pM.

Question: `CC(C)C[C@H](NC(=O)[C@@H](CCCCNC(=O)c1cccnc1)NC(=O)[C@H](Cc1ccc(O)cc1)N(C)C(=O)[C@H](CO)NC(=O)[C@@H](Cc1cccc2ccccc12)NC(=O)[C@@H](Cc1ccc(Cl)cc1)NC(=O)NNC(=O)c1cccnc1)C(=O)N[C@@H](CCCCNC(C)C)C(=O)N1CCC[C@H]1C(=O)N[C@H](C)C(N)=O` [Example 33c, N-Nicotinyl-Azagly-D4ClPhe-D1Nal-Ser-NMeTyr-DLys(Nic)-Leu-Lys(Isp)-Pro-DAlaNH2] (Nicotinoyl-[azaGly][dPhe(4-Cl)][d1Nal]S[NMeY][dK](Nicotinoyl)L[Lys(iPr)]P[dA]-NH2) was tested. Which Kb did it give?
Answer: Its Kb is 5.01 pM.
